According to US9724347B2, “1-pyrazolyl-3-(4-((2-anilinopyrimidin-4-yl)oxy)napththalen-1-yl) ureas as P38 MAP knase inhibitors” (Respivert Ltd., priority 2011, dated 2017):

Tests used:
[1] = system: TNFα release in THP-1 cells; test: LPS-induced TNFα release in THP-1 cells; type: cell-based, human; conditions: THP1 cells
Description: THP-1 cells, a human monocytic cell line, were stimulated with 3 μg/mL of LPS (from E. Coli; 0111:B4, Sigma) for 4 hr and the supernatant collected for determination of the TNFα concentration by sandwich ELISA (Duo-set, R&D systems). The inhibition of TNFα production was calculated at each concentration by comparison with vehicle control.

[2] = system: TNFα release in d-U937 cells; test: LPS-induced TNFα release in d-U937 cells; type: cell-based, human; conditions: dU937 cells; relative to 10 μg/mL BIRB796; read-out: LPS Induced Release TNFα REC50 (dU937)
Description: (§1) U937 cells, a human monocytic cell line, were differentiated into macrophage-type cells by incubation with PMA (100 ng/mL) for 48 to 72 hr. Cells were pre-incubated with final concentrations of test compound for 2 hr and were then stimulated with LPS (0.1 μg/mL; from E. Coli: 0111:B4, Sigma) for 4 hr. The supernatant was collected for determination of TNFα and IL-8 concentrations by sandwich ELISA (Duo-set, R&D systems). […] The relative 50% effective concentration (REC50) was determined from the resultant concentration-response curve. The inhibition of IL-8 production was calculated at each concentration of test compound by comparison with vehicle control.

[3] = system: IL-8 release in d-U937 cells; test: LPS-induced IL-8 release in d-U937 cells; type: cell-based, human; conditions: dU937 cells
Description: as §1, with “Cells were pre-incubated with final concentrations of test compound for 2 hr and were then stimulated with LPS (0.1 μg/mL; from E. Coli: 0111:B4, Sigma) for 4 hr.” left out

[4] = system: ICAM-1 expression in BEAS2B cells; test: Poly I:C-induced ICAM-1 expression in BEAS2B cells; type: cell-based, human; conditions: read-out: PolyIC/ICAM1 IC50 (BEAS2B)
How it was run: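 BEAS2B human bronchial epithelial cells pre-incubated 2 h with compound, then transfected with 1 μg/mL poly I:C plus Oligofectamine. After 18 h, surface ICAM-1 measured by cell-based ELISA (OD450–655), normalised to crystal violet cell count (OD595). Inhibition calculated against vehicle control.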

[5] = system: HRV IL-8 release (BEAS2B); test: Rhinovirus-induced IL-8 release in BEAS2B cells; type: cell-based, human; conditions: at 0.04 μg/mL
Description: Human rhinovirus RV16 was obtained from the American Type Culture Collection (Manassas, Va.). Viral stocks were generated by infecting Hela cells with HRV until 80% of the cells were cytopathic.
BEAS2B cells were infected with HRV at an MOI of 5 and incubated for 2 hr at 33° C. with gentle shaking for to promote absorption. The cells were then washed with PBS, fresh media added and the cells were incubated for a further 72 hr. The supernatant was collected for assay of IL-8 concentrations using a Duoset ELISA development kit (R&D systems, Minneapolis, Minn.).
The level of cell surface ICAM-1 expression was determined by cell-based ELISA. At 72 hr after infection, cells were fixed with 4% formaldehyde in PBS. After quenching endogenous peroxidase by adding 0.1% sodium azide and 1% hydrogen peroxide, wells were washed with wash-buffer (0.05% Tween in PBS: PBS-Tween). […] The ICAM-1 signal was detected by adding substrate and reading at 450 nm with a reference wavelength of 655 nm using a spectrophotometer. The wells were then washed with PBS-Tween and total cell numbers in each well were determined by reading absorbance at 595 nm after Crystal Violet staining and elution by 1% SDS solution. The measured OD450-655 readings were corrected for cell number by dividing with the OD595 reading in each well. […]

HRV16 = HRV16 induced CPE in MRC5 cells; type: cell-based, human rhinovirus; conditions: at 0.04 μg/mL
Description: The supernatants were aspirated, and then fresh media added followed by incubation for 4 days. Where appropriate, cells were pre-incubated with compound or DMSO for 2 hr, and the compounds and DMSO added again after washout of the virus.
The percentage inhibition for each well was calculated. The IC50 value was calculated from the concentration-response curve generated by the serial dilutions of the test compounds.

d-U937 cells = test: Cell viability: MTT assay; type: cell-based, human; conditions: 1 μg/mL
How it was run: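 Differentiated U937 cells exposed to compound at 1 or 10 μg/mL final, either 4 h in 5% FCS RPMI1640 or 24 h in 10% FCS RPMI1640. After medium replacement, MTT added 1 h, formazan dissolved in DMSO, A550 read. % viability loss vs 0.5% DMSO vehicle; apparent viability gain shown as negative %.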

SMILES: Cc1ccc(-n2nc(C(C)(C)C)cc2NC(=O)Nc2ccc(Oc3ccnc(Nc4ccccc4Cl)n3)c3ccccc23)cc1 [Example 19, 1-(3-(tert-butyl)-1-(p-tolyl)-1H-pyrazol-5-yl)-3-(4-((2-((2-chlorophenyl)amino)pyrimidin-4-yl)oxy)naphthalen-1-yl)urea]
- IC50 [1]: 192 nM
- EC50 [2]: 13 nM
- IC50 [3]: 14 nM
- IC50 [4]: 43 nM
- HRV IL-8 (BEAS2B) % inhibition [5]: 100%
- HRV CPE (MRC5) % inhibition (HRV16): NE (NE: no effect, ≦0% at 0.04 μg/mL)
- MTT Assay Cell viability at time point in d-U937 Cells (d-U937 cells; 4 h): −ve (−ve and +ve indicate the value is below and above respectively, the no significant effect threshold defined as 30% inhibition at 1 μg/mL at the time point indicated)
- MTT Assay Cell viability at time point in d-U937 Cells (d-U937 cells; 24 h): −ve (−ve and +ve indicate the value is below and above respectively, the no significant effect threshold defined as 30% inhibition at 1 μg/mL at the time point indicated)
